According to article PMC6177136, “Hybrid topoisomerase I and HDAC inhibitors as dual action anticancer agents” (PLoS ONE, 2018):

Columns and labels:
[1] = tested on: human epithelioid mesothelioma MM473-Luc; test: In vivo antitumor activity, orthotopic MM473-Luc xenograft; conditions: i.v. 45 mg/kg, q4dx3w, treatment from day 15
MINO = test: Cytotoxicity assay (MTT, 72 h) MINO; assay type: cell-based, Human; conditions: Homo sapiens, MINO; 72 h, MTT assay; read-out: IC50 ± SD MINO
MV4-11 = test: Cytotoxicity assay (MTT, 72 h) MV4-11; assay type: cell-based; conditions: Homo sapiens, read-out: IC50 ± SD MV4-11
HepG2 = test: Cytotoxicity assay (SRB, 72 h) HepG2; assay type: cell-based, Human; conditions: Homo sapiens, HepG2, read-out: IC50 ± SD HepG2
NCI-H460 NSCLC cells = test: FACS analysis of cell cycle and apoptosis; assay type: cell-based, Human; conditions: 72 h at own IC80 dose, PI staining
Capan 1 = test: Cytotoxicity assay (SRB, 72 h) Capan 1; assay type: cell-based, Human; conditions: Homo sapiens, CAPAN-1, read-out: IC50 ± SD Capan 1
[2] = mouse, in vivo, iv, 45 mg/kg
MM472 = test: Cytotoxicity assay, primary mesothelioma MM472; assay type: cell-based, Human; conditions: Homo sapiens; sarcomatoid, 72 h, SBR assay; read-out: IC50 ± SD MM472
[3] = tested on: series of human tumor cell lines; test: Antiproliferative activity, series of human tumor cell lines (summary); assay type: cell-based; conditions: span over the cell line panel, 72 h, SRB assay, read-out: IC50 across the human tumor cell lines of Table 3
H929 = test: Cytotoxicity assay (MTT, 72 h) H929; assay type: cell-based; conditions: Homo sapiens, NCI-H929, read-out: IC50 ± SD H929
H2A.X = test: Western blot, H2A.X induction in NCI-H460 cells; assay type: cell-based, Human; conditions: 24 h; SAHA 5 μM, SN38 0.05 μM, 3d 0.125–0.2–0.5 μM
Protocol: (§1) The supernatant, containing the total proteins extracts, were transferred in new vials. The protein concentration was measured by Bradford Protein Assay. Equal amounts of proteins for each sample were then resolved by SDS-PAGE and loaded on 10–12% polyacrilamide gels. The proteins were then transferred on nitrocellulose membranes. Molecular weights were estimated based upon the relative migration with molecular weight protein markers.
(§2) The non-specific binding was blocked by incubation of membranes in TBS-tween (25 mM Tris, 150 mM NaCl, 0.1% Tween 20) with 5% nonfat dry milk (BIORAD, Milan) for 60 minutes. Subsequently, the membrane was incubated overnight with primary antibodies: anti-Histone H4 (Millipore, 1:500), anti-acetyl-H4 (Santa Cruz, 1:1000) anti-p21 (Santa Cruz, 1:1000), anti-acetyl-tubulin (abcam, 1:1000), anti-α-tubulin (Sigma, 1:5000), anti β-actin (Sigma, 1:5000) and anti-Topoisomerase 1 (Santa Cruz, 1:500). After three washes with TBST blots were incubated with HRP-coniugated secondary anti-mouse and anti-rabbit (Santa Cruz, 1:5000) 1 hour at room temperature. After three washes with TBST the blots were developed with ECL substrate (GE Healthcare) and chemiluminescence detected by ChemiDoc Imaging System (Biorad). The optical density of the protein bands detected by western blotting was normalized on α -tubulin levels and analyzed by ChemiDoc software (Biorad).
Cells were lysed in 0.5% NP-40 and 40 μg of total proteins were loaded on NuPAGE 4–12% (Invitrogen), transferred to a nitrocellulose paper and probed with specific antibodies.

HDAC10 = HDAC10 (Homo sapiens, UniProt Q969S8); test: HDAC profiling HDAC10; assay type: biochemical; conditions: purified isoform, 10 concentrations from 10 μM, triplicate
HDAC10, sequence (Q969S8 whole entry, canonical isoform): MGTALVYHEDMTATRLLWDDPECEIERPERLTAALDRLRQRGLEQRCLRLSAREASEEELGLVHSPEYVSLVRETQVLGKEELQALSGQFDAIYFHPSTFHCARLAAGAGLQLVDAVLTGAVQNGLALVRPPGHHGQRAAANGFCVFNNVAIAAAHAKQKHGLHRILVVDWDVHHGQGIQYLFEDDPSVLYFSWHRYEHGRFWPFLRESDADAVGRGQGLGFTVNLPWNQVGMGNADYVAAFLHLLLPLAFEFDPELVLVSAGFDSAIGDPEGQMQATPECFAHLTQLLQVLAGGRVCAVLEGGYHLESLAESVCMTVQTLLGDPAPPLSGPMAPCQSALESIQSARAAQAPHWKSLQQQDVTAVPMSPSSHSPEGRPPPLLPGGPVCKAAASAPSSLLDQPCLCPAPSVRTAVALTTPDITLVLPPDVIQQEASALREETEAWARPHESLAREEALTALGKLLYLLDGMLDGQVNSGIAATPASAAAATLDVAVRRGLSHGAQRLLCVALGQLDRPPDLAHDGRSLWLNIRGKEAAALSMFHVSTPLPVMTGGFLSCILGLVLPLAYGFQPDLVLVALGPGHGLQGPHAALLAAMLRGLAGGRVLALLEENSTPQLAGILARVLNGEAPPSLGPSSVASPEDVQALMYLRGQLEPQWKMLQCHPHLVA

NCI-H460 = test: Cytotoxicity assay (SRB, 72 h) NCI-H460; assay type: cell-based, Human; conditions: Homo sapiens, NCI-H460; 72 h, SRB assay; read-out: IC50 ± SD NCI-H460
Jurkat-cp = test: Cytotoxicity assay (MTT, 72 h) Jurkat-cp; assay type: cell-based; conditions: Homo sapiens, read-out: IC50 ± SD Jurkat-cp
REC-1 = test: Cytotoxicity assay (MTT, 72 h) REC-1; assay type: cell-based; conditions: Homo sapiens, Rec1, read-out: IC50 ± SD REC-1
[4] = tested on: primary malignant pleural mesothelioma (MPM) cell lines; test: Primary malignant pleural mesothelioma (MPM) cell lines (summary); assay type: cell-based; conditions: Homo sapiens, span over the cell line panel, 72 h, read-out: IC50 across primary mesothelioma cell lines (Table 7)
MM288 = test: Cytotoxicity assay, primary mesothelioma MM288; assay type: cell-based, Human; conditions: Homo sapiens; epithelioid, 72 h, SBR assay; read-out: IC50 ± SD MM288
A431 = test: Cytotoxicity assay (SRB, 72 h) A431; assay type: cell-based, Human; conditions: Homo sapiens, A-431, read-out: IC50 ± SD A431
MM491 = test: Cytotoxicity assay, primary mesothelioma MM491; assay type: cell-based, Human; conditions: Homo sapiens; biphasic, 72 h, SBR assay; read-out: IC50 ± SD MM491
KM-H2 = test: Cytotoxicity assay (MTT, 72 h) KM-H2; assay type: cell-based, Human; conditions: Homo sapiens, KM-H2; 72 h, MTT assay; read-out: IC50 ± SD KM-H2
HDAC2 = HDAC2 (Homo sapiens, UniProt Q92769); test: HDAC profiling HDAC2; assay type: biochemical; conditions: purified isoform, 10 concentrations from 10 μM, triplicate
HDAC2, sequence (Q92769 whole entry, canonical isoform): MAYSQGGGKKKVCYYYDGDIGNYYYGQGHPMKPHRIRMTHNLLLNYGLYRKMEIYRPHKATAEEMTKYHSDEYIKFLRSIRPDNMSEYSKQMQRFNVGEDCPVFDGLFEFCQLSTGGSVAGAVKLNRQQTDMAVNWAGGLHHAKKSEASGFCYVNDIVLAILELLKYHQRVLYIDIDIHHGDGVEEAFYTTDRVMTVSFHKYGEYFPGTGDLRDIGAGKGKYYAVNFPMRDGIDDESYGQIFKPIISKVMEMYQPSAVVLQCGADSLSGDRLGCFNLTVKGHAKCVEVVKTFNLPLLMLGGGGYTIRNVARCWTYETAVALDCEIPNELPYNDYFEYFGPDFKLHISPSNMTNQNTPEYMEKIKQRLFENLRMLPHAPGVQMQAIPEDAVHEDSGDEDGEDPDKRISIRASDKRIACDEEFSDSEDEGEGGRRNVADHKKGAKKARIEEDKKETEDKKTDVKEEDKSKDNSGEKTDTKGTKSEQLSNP

HT29 = test: Cytotoxicity assay (SRB, 72 h) HT29; assay type: cell-based, Human; conditions: Homo sapiens, HT-29, read-out: IC50 ± SD HT29
A2780-Dx = test: Cytotoxicity assay (SRB, 72 h) A2780-Dx; assay type: cell-based, Human
Acetylated Histone H4 = test: Western blot, acetylation of histone H4 in NCI-H460 cells; assay type: cell-based, Human; conditions: 24 h; SN38 0.05 μM, SAHA 5 μM, 3b and 3d 0.125–0.2–0.5 μM
Protocol: as §1
as §2, with “software (Biorad). […]” for “software (Biorad).”

MM432 = test: Cytotoxicity assay, primary mesothelioma MM432; assay type: cell-based, Human; conditions: Homo sapiens; sarcomatoid, 72 h, SBR assay; read-out: IC50 ± SD MM432
DU145 = test: Cytotoxicity assay (SRB, 72 h) DU145; assay type: cell-based, Human; conditions: Homo sapiens, DU-145, read-out: IC50 ± SD DU145

With `CC[C@@]1(O)C(=O)OCc2c1cc1n(c2=O)Cc2c-1nc1ccc(O)cc1c2C=NOCCCCCC(=O)NO` [Compound 3d, 6-(10-hydroxycamptothecin-7-ylmethyleneaminooxy)-hexanoic acid hydroxyamide] the “antitumor activity (BLI signal, average radiance)” value [1] was “strong antitumor activity”, the IC50 (MINO) was 31 ± 10 nM and the IC50 (MV4-11) was 2730 ± 300 nM. For the same compound, the IC50 (HepG2) was 110 ± 30 nM, the “G0/1 (%)” value (NCI-H460 NSCLC cells) was 12.1% and the “G2/M (%)” value (NCI-H460 NSCLC cells) was 11.9%. For the same compound, the “S (%)” value (NCI-H460 NSCLC cells) was 76.0%, the “Sub-G0/1 (%)” value (NCI-H460 NSCLC cells; apoptosis) was 15.2% and the IC50 (Capan 1) was 35 ± 2 nM. The body weight [2] was “no reduction in body weight was observed”, the IC50 (MM472) was 48 ± 10 nM and the IC50 [3] was 30 to 400 nM. The IC50 (H929) was 1100 ± 400 nM, the “H2A.X induction (DNA damage)” value (H2A.X) was “DNA damage at a dose corresponding to its IC80, confirmed by H2A.X induction” and the IC50 (HDAC10) was 224 nM. It also gave an IC50 (NCI-H460) of 270 ± 20 nM, an IC50 (Jurkat-cp) of 230 ± 50 nM and an IC50 (REC-1) of 180 ± 40 nM. The IC50 [4] was 50 to 11000 nM, the IC50 (MM288) was 480 ± 100 nM and the IC50 (A431) was 140 ± 20 nM. It also gave an IC50 (MM491) of 870 ± 300 nM, an IC50 (KM-H2) of 390 ± 100 nM and an IC50 (HDAC2) of 93.3 nM. The IC50 (HT29) was 390 ± 100 nM, the “RI (Resistance Index)” value (A2780-Dx; A2780-Dx versus A2780) was 6.6 and the IC50 (A2780-Dx; Homo sapiens, A2780/DX, 72 h, SRB assay, multidrug-resistant ovarian carcinoma, read-out: IC50 ± SD A2780-Dx) was 1800 ± 400 nM. The “accumulation of acetylated histone H4” value (Acetylated Histone H4) was “H4 and tubulin acetylation in a dose dependent manner”, the IC50 (MM432) was 160 ± 30 nM and the IC50 (DU145) was 70 ± 3 nM.
